Test results: patent US20090176786A1, “Benzoylurea Compounds and Use Thereof” (priority 2005, published 2009)

Assays:
Assay type in all cases: in vivo
Plutella xylostella [1] = assay: Test Example 2: cabbage root immersion (systemic), dead pest rate of Plutella xylostella larvae; conditions: Plutella xylostella, 120 h; test concentration 25 ppm; root immersion 5 days; 10 second-instar larvae; after 5 days at 24° C.
Experimental: In 0.25 mL of a mixture solution of Sorgen TW-20 (manufactured by Daiichi Industries Pharmaceuticals, Co., Ltd.) and acetone (mixture volume ratio; Sorgen TW-20:acetone=1:19), 2.5 mg of the present compound (1), (2), (3), (4), (7), (10), (11), (12), (16), (18), (19), (20), (21), (22), (25), (30), (36), (37), (41), (42), (52), (54), (56), (57), (60), (62), (105) or (109) was dissolved. The solution was diluted with ion-exchanged water so that the active ingredient concentration became to a predetermined concentration to prepare a pesticidal solution for test of the test compound. The root part of cabbages in the fourth leaf period were washed with tap water to remove soils, and then immersed in the pesticidal solution for test. After 5 days from immersion of the root part, the root part was removed, and the leaves and stems were put in a cup (volume; 180 mL). In the cup 10 second-instar larvae of Plutella xylostella were released, and the cup was stored at 24° C. After 5 days, the number of dead pests was counted, and the dead pest rate was calculated by the following equation:
(§1) Dead pest rate(%)=(the number of dead pests/the number of tested pests)×100
The test concentrations of the other present compounds were 25 ppm.

Coptotermes formosanus = assay: Test Example 8: filter paper bait test, control rate of Coptotermes formosanus; conditions: filter paper bait treated with 1 mL of 10 mg/mL acetone solution; 20 ergates; 6 weeks in a dark place
Experimental: A filter paper having a diameter of 33 mm (No. 1026 manufactured by Toyo Filter Paper, Co., Ltd.) was treated with acetone solution (1 mL) of 10 mg/mL of the present compounds (1) or (12) using a pipette, and dried at room temperature. Hereinafter, the resulting filter paper is referred to as a filter paper bait. 4% agarose was poured into a plastic petri dish having a diameter of 9 cm to make the thickness about 5 mm, and solidified by leaving at rest at room temperature. One circular hole having a diameter of 35 mm (hereinafter, referred to as a well) was made in the solidified agarose. One filter paper bait was put into the well. Then, after 20 ergates of Coptotermes formosanus were released in the above petri dish, the petri dish was capped, and sealed with a parafilm. After storing in a dark place for 6 weeks, the petri dish was opened. The control rate was calculated by observing the life and death of the Coptotermes formosanus in the petri dish.

Plutella xylostella [2] = assay: Test Example 1: spray on cabbage, dead pest rate of Plutella xylostella larvae; conditions: Plutella xylostella, 120 h; 500 ppm spray solution, 20 ml/cup on cabbage; 5 second-instar larvae; after 5 days
Experimental: Ten parts of the present compound (1), (2), (5) to (19), (21) to (34), (36) to (61), (63), (64), (68) to (71), (74), (76) to (78), (82) to (83), (89), (93), (94), (97), (99), (102) to (110), (111), (115), (116) (117) to (120) or (123) to (134); 35 parts of white carbon containing 50 parts of polyoxyethylene alkyl ether sulfate ammonium salt; and 55 parts of water were mixed, and finely ground by a wet grinding method to obtain a 10% flowable agent. The obtained flowable agent was diluted with water so that the active ingredient concentration became to 500 ppm to prepare a spray solution for test.
Cabbages were planted in polyethylene cups, and grown until the third true leaf or the fourth true leaf was developed. The spray solution for test prepared above was sprayed at a rate of 20 ml/cup on the cabbages.
After the pesticidal solution sprayed onto the cabbages was dried, 5 second-instar larvae of Plutella xylostella were put on the cabbages. After 5 days, the number of dead Plutella xylostella was examined, and a dead pest rate was calculated by the following equation:
as §1

Plutella xylostella [3] = assay: Test Example 7: cabbage root immersion, Plutella xylostella, against comparative compound D; conditions: 25 ppm; root immersion 5 days; 10 second-instar larvae; after 5 days at 24° C.
Experimental: (§2) In 0.25 mL of a mixed solution of Tween-20 and acetone (mixture volume ratio: Tween-20:acetone=1:19), 2.5 mg of the present compound (94) or comparative compound D was dissolved. The solution was diluted with ion-exchanged water so that the active ingredient concentration became to the predetermined concentration (25 ppm) to prepare a pesticidal solution for test of the test compound. The root part of cabbages in the fourth leaf period was washed with tap water to remove soils, and then immersed in the pesticidal solution for test. After 5 days from immersion of the root part, the root part was removed, and the leaves and stems were put in a ice cream cup (volume; 180 mL). In the cup 10 second-instar larvae of Plutella xylostella were released, and the cup was stored at 24° C. After 5 days, the number of dead pests was countered, and the dead pest rate was calculated by the following equation:
as §1

Spondoptela litura = assay: Test Example 3: treated artificial diet (Insecta LF), dead pest rate of Spondoptela litura larvae; conditions: 144 h, 2 mL on Insecta LF diet, 5 fourth-instar larvae, after 6 days
Source text: Ten parts of the present compound (1) to (5), (7) to (13), (18) to (33), (35) to (49), (52) to (56), (58) to (61), (71), (73) to (77), (79), (80), (82), (83), (93), (94), (95), (96), (97), (100) to (109), (111), (112), (115), (117), (119), (121), or (123) to (133), 35 parts of white carbon containing 50 parts of polyoxyethylene alkyl ether sulfate ammonium salt, and 55 parts of water were mixed, and finely ground by a wet grinding method to obtain a preparation. The obtained preparation was diluted with water so that the active ingredient concentration became to 500 ppm to prepare a pesticidal solution for test. On the bottom of a polyethylene cup having a diameter of 5.5 cm, a filter paper having a diameter of 5.5 cm was placed, on which Insecta LF (Nippon Agriculture Industries, Co., Ltd.) sliced in a thickness of 6 mm and further cut half was laid, and to which 2 mL of the above-described pesticidal solution for test was added. After air-dried, 5 fourth-instar larvae of Spondoptela litura were released in the cup, and the cup was capped. After 6 days, the number of dead pests was counted, and the dead pest rate was calculated by the following equation:
as §1

Plutella xylostella [4] = assay: Test Example 5: cabbage root immersion, Plutella xylostella, against comparative compounds A and B; conditions: 25 ppm; root immersion 5 days; 10 second-instar larvae; after 5 days at 24° C.
Experimental: as §2, with “(1), (4), (10), (82),” for “(94) or”, “A or B” for “D”, “a” for “a ice cream”
as §1

Row | Compound | pest or weed control at 25 ppm (Plutella xylostella [1]) [%] | control rate (Coptotermes formosanus) [%] | other results
1 | CN(C(=O)c1c(F)cccc1F)C(=O)N(C)c1ccc(SC(F)(F)F)cc1F [(10)] | 100 | 65 | 
2 | CN(C(=O)c1c(F)cccc1F)C(=O)N(C)c1ccc(SC(F)(F)C(F)F)cc1F [(12)] | 100 | 60 | 
3 | CN(C(=O)NC(=O)c1c(F)cccc1F)c1ccc(SC(F)(F)C(F)F)cc1 [(94)] |  |  | pest or weed control at 500 ppm (Plutella xylostella [2]): 100%; dead pest rate (Plutella xylostella [3]): 100%; pest or weed control at 500 ppm (Spondoptela litura): 100%
4 | O=C(NC(=O)c1c(F)cccc1F)Nc1ccc(SC(F)(F)F)cc1F [comparative compound A] |  |  | dead pest rate (Plutella xylostella [4]): 5%
